Experimental data reported in patent US20110086802A1, “METHODS TO INCREASE PERMEABILITY OF CORNEAL EPITHELIUM AND DESTABILIZE STROMAL COLLAGEN FIBRIL NETWORK” (priority 2008, published 2011).
Counter-ions that a name gives are not always drawn.

B1: human recombinant decorin: Human recombinant Decorin prepared from CHO-S cells, MW approximately 40,000 daltons; stabilization molecule (small leucine-rich proteoglycan) (protein, UniProt P07585 31-359, looked up)
Decorin: DEASGIGPEVPDDRDFEPSLGPVCPFRCQCHLRVVQCSDLGLDKVPKDLPPDTTLLDLQNNKITEIKDGDFKNLKNLHALILVNNKISKVSPGAFTPLVKLERLYLSKNQLKELPEKMPKTLQELRAHENEITKVRKVTFNGLNQMIVIELGTNPLKSSGIENGAFQGMKKLSYIRIADTNITSIPQGLPPSLTELHLDGNKISRVDAASLKGLNNLAKLGLSFNSISAVDNGSLANTPHLRELHLDNNKLTRVPGGLAEHKYIQVVYLHNNNISVVGSSDFCPPGHNTKKASYSGVSLFSNPVQYWEIQPSTFRCVYVRSAIQLGNYK

Key:
[1] = test system: corneal epithelium; details: cited from earlier work
[2] = test system: feline cornea; experiment: Corneal Hysteresis, Feline Study #1 (Reichert Ocular Response Analyzer); assay type: in vivo, cat; parameters: Corneal Hysteresis (CH): unit not given here
Protocol: Cats were placed in three treatment groups. One eye from two cats were untreated controls. All treatment solutions were administered using an applicator to localize exposure to the central corneal surface. The applicator used to apply solutions to the corneal surface was similar in design to that described in the co-pending provisional application entitled “APPARATUS TO IMPROVE LOCALIZED CONCENTRATION OF FLUIDS IN OCULAR ENVIRONMENTS” to Bruce DeWoolfson and Michael Luttrell, provisional application No. 61/064,731, filed Mar. 24, 2008, incorporated herein by reference in its entirety. Two eyes was treated with Proparacaine HCl, followed by treatment with 0.5M sodium phosphate buffer (pH 8.35), then with 3 mg of glutaric anhydride dissolved in 0.6 mL of sodium phosphate buffer, then with sodium phosphate buffer, followed by 1.5 μL of acetic anhydride diluted in 0.6 mL of sodium phosphate buffer, a second treatment with 1.5 μL of acetic anhydride in 0.6 mL of sodium phosphate buffer, a buffer rinse and finally treatment with 0.6 mL of human recombinant decorin (4.47 mg/mL).
Two eyes were treated as above but without a final treatment with decorin solution. All eyes were clinically evaluated immediately post-treatment. Three days following treatment, eyes were enucleated and the corneas removed, placed in formalin containing Cupromeronic blue.
Measurements of Corneal Hysteresis (CH) in the animals treated in Example 2. Corneal Hysteresis is a measure of the biomechanical strength of the cornea and is measured using the Reichert Ocular Response Analyzer. The Reichert Ocular Response Analyzer utilizes a dynamic bi-directional applanation process to measure the biomechanical properties of the cornea and the Intraocular Pressure of the eye. The basic output of the measurement process is a Goldmann-correlated pressure measurement (IOPG), and a new measure of corneal tissue properties called Corneal Hysteresis (CH).

[3] = test system: epithelial cell junctures of human donor corneal tissue; experiment: Confocal microscopy of fluorescent-tagged decorin penetration into donor cornea; assay type: in vitro ADME; details: for disruption of epithelial cell junctures permitting diffusion of human recombinant decorin: human donor cornea, agent applied 30 seconds to central cornea by applicator before fluorescent-tagged decorin
Source text: Confocal Microscopy of glutaric anhydride treated cornea. Four donor corneas were obtained from Insight Biomed (Minneapolis, Minn.). All cornea tested negative for viral contamination. Corneas were rejected for transplantation due to storage expiration, low endothelial cell counts or other factors not related to epithelial cell integrity and stromal structure. All corneas were examined by slit-lamp microscopy for epithelial cell integrity. Corneas were stored in Optisol (Bausch & Lomb) for storage. Confocal microscopy was conducted at the Department of Surgical Research, Dartmouth-Hitchcock Medical Center, Lebanon, N.H. Two corneas were untreated controls and two were treated with glutaric anhydride followed by application of fluorescent-tagged human recombinant decorin. […] Fluorescent-tagged decorin was prepared by reacting decorin with Oregon Green 488 using a labeling kit from Molecular Probes.
All corneas were placed on a convex silicone pad and secured with pins. This allowed exposure to the corneal surface in a fixed position. All treatment solutions were administered using an applicator to localize exposure to the central corneal surface. Control cornea were treated with Proparacaine HCl for 1 minute followed by treatment with 0.5 mL of 0.2M sodium phosphate buffer (pH 8.3-8.5) for 30 seconds, 0.5 mL of saline rinse for 30 seconds, and then 0.1 mL of fluorescent-tagged human recombinant decorin. T reated cornea were treated with Proparacaine HCl for 1 minute, followed by treatment with 0.5 mL of 0.2M sodium phosphate buffer (pH 8.3-8.5) for 30 seconds, glutaric anhydride (dissolved immediately before application in sodium phosphate buffer (pH 8.3-8.5) at 5 mg/mL) for 30 seconds, saline rinsed, and then treated with 0.1 mL of fluorescent-tagged human recombinant decorin. Control and treated corneas were examined for decorin diffusion into the stroma using the Zeis confocal microscope (Model LSM 510 Meta; C apo 40×, NA=1.2, Thornwood, N.Y.).
Confocal Microscopy of acetic anhydride treated cornea. The protocol was the same as that described above for glutaric anhydride treatment. All treatment solutions were administered using an applicator to localize exposure to the central corneal surface. The applicator used to apply solutions to the corneal surface was similar in design to that described in the co-pending provisional application entitled “APPARATUS TO IMPROVE LOCALIZED CONCENTRATION OF FLUIDS IN OCULAR ENVIRONMENTS” to Bruce DeWoolfson and Michael Luttrell, provisional application No. 61/064,731, filed Mar. 24, 2008, incorporated herein by reference in its entirety. Control cornea were treated with Proparacaine HCl for 1 minute followed by treatment with 0.5 mL of 0.2M sodium phosphate buffer (pH 8.3-8.5) for 30 seconds, 0.5 mL of saline rinse for 30 seconds, and then 0.1 mL of fluorescent-tagged human recombinant decorin. Treated cornea were treated with Proparacaine HCl for 1 minute, followed by treatment with 0.5 mL of 0.3M sodium phosphate buffer (pH 8.3-8.5) for 30 seconds, acetic anhydride (3 μL) (diluted with 0.3M sodium phosphate buffer (pH 8.3-8.5) immediately before application) for 30 seconds, saline rinsed, and then treatment with 0.1 mL of fluorescent-tagged human recombinant decorin. Control and treated corneas were examined for decorin diffusion into the stroma using the Zeis confocal microscope (Model LSM 510 Meta; C apo 40×, NA=1.2, Thornwood, N.Y.).

[4] = test system: feline cornea; experiment: Corneal Hysteresis, Feline Study #2 (Reichert Ocular Response Analyzer); assay type: in vivo, cat; parameters: Corneal Hysteresis (CH): unit not given here
Protocol: A second study was conducted to examine the effects of acylation on “softening” or destabilizing corneal structural integrity using the Reichert Ocular Response Analyzer. Five subject animals were included in this study. One eye of each animal was treated with the contralateral eye serving as the control. For three animal subjects treatment eyes were evaluated for corneal hysteresis using the Reichert Ocular Response Analyzer before treatment and then after treatment with Proparacaine HCL, acetic anhydride diluted in sodium phosphate solution at a pH of 8.3-8.5, and decorin. For two animal subjects, no acylation agent was applied to the cornea. Instead, a 4 mm trephine was used to penetrate the corneal epithelium to provide a track for decorin penetration. Corneal hysteresis results are shown below in Table 2.

[5] = test system: stromal collagen fibers; experiment: Transmission electron microscopy of decorin-treated cat cornea (first study); assay type: in vivo; details: cat eyes exposed to 50 μg decorin for 1, 3 or 5 days, no applicator; versus control cornea
Protocol: The following study was conducted at the Department of Surgical Research, Dartmouth-Hitchcock Medical Center, Lebanon, N.H. Five adult female cats were included in the study. All animals procured from Liberty Laboratories and were identified by ear tattoo. Ocular toxicity was determined by slit-lamp examination and measurement of endothelial cell structure. Decorin penetration into the corneal stroma was determined utilizing transmission electron microscopy. Cornea treated with decorin were reacted with Quinolinic Blue Stain (Cupromeronic blue) in buffered formalin. This reagent stains small proteoglycan structures such as decorin.
Cats were placed in three treatment groups. One eye from each group was treated with decorin. Three eyes were controls. Treated eyes were exposed to 50 μg of decorin for 1 day, 3 days or 5 days. Decorin solution was administered to the corneal using a sterile transfer pipet. An applicator was not used to localize the solution to the central corneal surface. All eyes were clinically evaluated immediately post-treatment and at days 2, 3, 5, and 8. One month after final treatment, eyes were reexamined and then enucleated. Each eye was sectioned. One half was placed in Formalin for subsequent histological analysis. The other half was again divided in half, one half prepared for Transmission Electron Microscopy. […]

[6] = Animal IBT4 treated eye, after the named step of the sequence Proparacaine, GA, AA #1, AA #2, decorin, Initial 4.0
[7] = Animal QKU8 treated eye, no decorin, after the named step of the sequence, Initial 7.0
[8] = Animal QKU8 treated eye, after the named step of the sequence, Initial 6.4
[9] = Animal QNO6 treated eye, no decorin, after the named step of the sequence, Initial 6.3
[10] = Animal AHH3, after the named step of Proparacaine HCL, acetic anhydride, decorin, Initial 8.75
[11] = Animal QJD4, after the named step of Proparacaine HCL, acetic anhydride, decorin, Initial 6.9
[12] = Animal RAF6, after the named step of Proparacaine HCL, acetic anhydride, decorin, Initial 5.88

Row | Molecule | Corneal Hysteresis (CH) [2, 6] | Corneal Hysteresis (CH) [2, 7] | Corneal Hysteresis (CH) [2, 8] | Corneal Hysteresis (CH) [2, 9] | disruption of epithelial cell junctures permitting diffusion of human recombinant decorin [3] | Corneal Hysteresis (CH) [4, 10] | Corneal Hysteresis (CH) [4, 11] | Corneal Hysteresis (CH) [4, 12] | also measured
1 | cetylpyridium chloride |  |  |  |  |  |  |  |  | effect on corneal epithelium ([1]; 0.02%, Godbey): disrupted the top layers of epithelial cells
2 | C[C@@H]1CC[C@@]2(OC1)O[C@H]1[C@@H](O)[C@H]3[C@@H]4CC[C@H]5C[C@@H](O[C@@H]6O[C@H](CO)[C@H](O[C@@H]7O[C@H](CO)[C@@H](O)[C@H](O[C@@H]8OC[C@@H](O)[C@H](O)[C@H]8O)[C@H]7O[C@@H]7O[C@H](CO)[C@H](O)[C@H](O[C@@H]8O[C@H](CO)[C@@H](O)[C@H](O)[C@H]8O)[C@H]7O)[C@H](O)[C@H]6O)[C@H](O)C[C@]5(C)[C@H]4CC[C@]3(C)[C@H]1[C@@H]2C [digitonin] |  |  |  |  |  |  |  |  | effect of pretreating cornea on drug penetration ([1]; Shih and Lee): enhance penetration of timolol; effect of pretreating cornea on epithelium layers ([1]; Shih and Lee): exfoliate the top 2 layers of epithelium
3 | CCCOc1ccc(C(=O)OCCN(CC)CC)cc1N [Proparacaine, Proparacaine HCl, reference compound] | 7.0 | 7.5 | 8.0 | 7.0 |  |  |  |  | 
4 | O=C1CCCC(=O)O1 [glutaric anhydride] | 3.3 | 6.4 | 5.3 | 6.4 | successfully disrupted the epithelial cell junctures |  |  |  | 
5 | CC(=O)OC(C)=O [acetic anhydride] | 3.2 | 5.7 | 7.0 | 5.7 | successfully disrupted the epithelial cell junctures | 5.73 | 3.9 | 4.15 | Corneal Hysteresis (CH) ([2]; Animal IBT4 treated eye, Post-AA #2 (second acetic anhydride treatment), Initial 4.0): 3.9; Corneal Hysteresis (CH) ([2]; Animal QKU8 treated eye, Post-AA #2, Initial 6.4): 6.7; Corneal Hysteresis (CH) ([2]; Animal QKU8 treated eye, Post-AA #2, Initial 7.0): 4.8; Corneal Hysteresis (CH) ([2]; Animal QNO6 treated eye, Post-AA #2, Initial 6.3): 3.8
6 | B1 | 4.6 |  | 7.9 |  |  | 7.3 | 6.3 | 5.18 | decorin penetration into cornea ([3]; control cornea, epithelial cell junctures not disrupted, applied directly to central cornea): limited to the epithelium; decorin penetration into cornea ([3]; cornea pretreated with acetic anhydride (3 μL) for 30 seconds): penetrated the corneal stroma; decorin penetration into cornea ([3]; cornea pretreated with glutaric anhydride 5 mg/mL for 30 seconds): penetrated the corneal stroma; molecular bridges (links between fibers) between collagen fibers, TEM [5]: increase in molecular bridges; change of corneal hysteresis (CH), in words ([2]; Feline Study #1, sequential acylation then decorin): increased CH values to levels greater than initial values; Corneal Hysteresis (CH) ([4]; Animal BEA4, no acylation agent, 4 mm trephine through epithelium, Initial 3.65): 4.8; Corneal Hysteresis (CH) ([4]; Animal IRH6, no acylation agent, 4 mm trephine through epithelium, Initial 7.98): 8.03; change of CH values, in words ([4]; Feline Study #2, acylation agent treated cornea): increased CH values; change of CH values, in words ([4]; Feline Study #2, trephined but not acylation agent treated cornea): minimal increase in CH values
